Test results: the supplement of paper PMC10307832

Assays:
Assay in all cases: relative viability (nuclei count vs DMSO), 5 days (fraction); higher = more cells survive
RO-3306 + AZD7762 = compound: C1=CC2=C(C=CC(=C2)C=C3C(=O)NC(=NCC4=CC=CS4)S3)N=C1 [RO-3306] + NC(=O)Nc1cc(-c2cccc(F)c2)sc1C(=O)N[C@H]1CCCNC1 [AZD7762] (partner 0.2 µM)
How it was run: (§1)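 Nuclei were stained with Hoechst during a one-step fixation (final 0.05% Triton X-100, 1% formaldehyde, 1 ug/ml Hoechst) carried out 5 days after dosing, then counted on 4× images. The cells, lung cancer lines in 1536-well plates, had been dosed by pin tool the day after seeding with one drug alone or a fixed anchor-drug dose plus five library-drug doses (not always all listed) in √10 steps. Relative viability is the nuclei count in treated wells divided by that in vehicle wells, and each value is the median of duplicate plates.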

RO-3306 + Vorinostat = compound: C1=CC2=C(C=CC(=C2)C=C3C(=O)NC(=NCC4=CC=CS4)S3)N=C1 [RO-3306] + O=C(CCCCCCC(=O)Nc1ccccc1)NO [Vorinostat] (partner 1 µM)
How it was run: as §1

RO-3306 + Crizotinib = compound: C1=CC2=C(C=CC(=C2)C=C3C(=O)NC(=NCC4=CC=CS4)S3)N=C1 [RO-3306] + C[C@@H](Oc1cc(-c2cnn(C3CCNCC3)c2)cnc1N)c1c(Cl)ccc(F)c1Cl [Crizotinib] (partner 1 µM)
How it was run: as §1

RO-3306 + Phenformin = compound: C1=CC2=C(C=CC(=C2)C=C3C(=O)NC(=NCC4=CC=CS4)S3)N=C1 [RO-3306] + N=C(N)NC(=N)NCCc1ccccc1 [Phenformin] (partner 250 µM)
How it was run: as §1

Cell Line | relative viability (RO-3306 + AZD7762; first compound 0.01 µM) | relative viability (RO-3306 + AZD7762; first compound 0.03162 µM) | relative viability (RO-3306 + AZD7762; first compound 0.1 µM) | relative viability (RO-3306 + AZD7762; first compound 0.3162 µM) | relative viability (RO-3306 + AZD7762; first compound 1 µM) | relative viability (RO-3306 + Vorinostat; first compound 0.01 µM) | relative viability (RO-3306 + Vorinostat; first compound 0.03162 µM) | relative viability (RO-3306 + Vorinostat; first compound 0.1 µM) | relative viability (RO-3306 + Vorinostat; first compound 0.3162 µM) | relative viability (RO-3306 + Vorinostat; first compound 1 µM) | relative viability (RO-3306 + Crizotinib; first compound 0.01 µM) | relative viability (RO-3306 + Crizotinib; first compound 0.03162 µM) | relative viability (RO-3306 + Crizotinib; first compound 0.1 µM) | relative viability (RO-3306 + Crizotinib; first compound 0.3162 µM) | relative viability (RO-3306 + Crizotinib; first compound 1 µM) | relative viability (RO-3306 + Phenformin; first compound 0.01 µM) | relative viability (RO-3306 + Phenformin; first compound 0.03162 µM) | relative viability (RO-3306 + Phenformin; first compound 0.1 µM) | relative viability (RO-3306 + Phenformin; first compound 0.3162 µM) | relative viability (RO-3306 + Phenformin; first compound 1 µM)
201T | 0.617 | 0.651 | 0.59 | 0.511 | 0.595 | 1.03 | 0.974 | 0.959 | 1.03 | 1.02 | 1.07 | 1.03 | 0.998 | 0.992 | 1.02 | 0.499 | 0.355 | 0.46 | 0.414 | 0.369
A549 | – | – | – | – | – | – | – | – | – | – | 0.872 | 0.705 | 0.751 | 0.687 | 0.706 | 0.225 | 0.802 | – | 0.124 | 1.12
A-427 | 0.821 | 0.766 | 0.685 | 0.744 | 0.832 | 0.843 | 0.818 | 0.898 | 0.911 | 0.865 | 1.02 | 0.883 | 0.904 | 0.955 | 0.845 | 0.339 | 0.241 | 0.312 | 0.295 | 0.243
ABC-1 | 0.906 | 0.812 | 0.823 | 0.963 | 0.813 | 1.21 | 1 | 1.03 | 1.13 | 0.781 | 1.21 | 0.85 | 1.12 | 1.18 | 1.44 | 0.238 | 0.222 | 0.268 | 0.27 | 0.232
BEN | 0.558 | 0.676 | 0.649 | 0.742 | 0.768 | 0.565 | 0.543 | 0.562 | 0.595 | 0.55 | 0.834 | 0.768 | 0.86 | 0.906 | 0.813 | 0.298 | 0.266 | 0.26 | 0.252 | 0.263
CAL-12T | 0.718 | 0.565 | 0.575 | 0.658 | 0.747 | 1.08 | 0.66 | 0.647 | 0.809 | 0.694 | 0.57 | 0.49 | 0.531 | 0.63 | 0.508 | 0.56 | 0.445 | 0.511 | 0.597 | 0.674
COR-L23 | – | – | – | – | – | 0.51 | 0.412 | 0.489 | 0.394 | 0.344 | 0.45 | – | 0.748 | 0.694 | 0.74 | 0.475 | 0.391 | 0.455 | 0.409 | 0.435
COR-L 105 | – | – | – | – | – | 0.779 | 0.773 | 0.77 | 0.759 | 0.751 | 0.757 | 0.794 | 0.781 | 0.768 | 0.673 | 0.499 | 0.386 | 0.417 | 0.517 | 0.429
Calu-6 | – | – | – | – | – | – | – | – | – | – | 0.909 | 0.774 | 0.802 | 0.804 | 0.768 | – | – | – | – | –
ChaGo-K-1 | 1.08 | 0.694 | 0.84 | 0.945 | 0.769 | 0.808 | 0.654 | 0.699 | 0.782 | 0.557 | 1.2 | 1.03 | 1.14 | 0.858 | 0.818 | 0.579 | 0.404 | 0.447 | 0.443 | 0.337
EBC-1 | – | – | – | – | – | – | – | – | – | – | 0.206 | 0.233 | 0.202 | 0.181 | 0.205 | – | – | – | – | –
EKVX | 0.727 | 0.538 | 0.677 | 0.692 | 0.603 | 0.75 | – | 0.739 | 0.663 | 0.712 | 1.05 | 0.859 | 1.03 | 1.04 | 0.894 | 0.245 | 0.196 | 0.218 | 0.217 | 0.22
EMC-BAC-2 | 1.1 | 1.04 | 1.14 | 1.14 | 1 | 0.417 | 0.354 | 0.351 | 0.534 | 0.161 | 0.768 | 0.723 | 0.767 | 0.735 | 0.702 | 0.516 | 0.401 | 0.536 | 0.497 | 0.508
EPLC-272H | 0.152 | – | 0.138 | 0.188 | 0.199 | 0.243 | 0.479 | 0.386 | 0.382 | 0.198 | 0.948 | 0.841 | 0.904 | 1.03 | 0.532 | 0.312 | 0.399 | 0.308 | 0.25 | 0.317
H3255 | 0.897 | 0.774 | 0.856 | 0.888 | 0.848 | 0.788 | 0.743 | 0.802 | 0.826 | 0.819 | 0.926 | 0.836 | 0.761 | 0.916 | 0.642 | 0.392 | 0.326 | 0.315 | 0.32 | 0.332
HARA | 0.443 | – | 0.237 | 0.297 | 0.421 | 0.493 | 0.404 | 0.527 | 0.638 | 0.445 | 1.05 | 0.916 | 1.04 | 1.27 | 1.01 | 0.471 | 0.357 | 0.504 | 0.429 | 0.466
HCC-15 | 1.25 | 1.08 | 1.12 | 1.21 | 1.34 | 0.923 | 0.712 | 0.898 | 0.854 | 0.773 | 1.01 | 0.707 | 0.848 | 0.925 | 0.763 | 0.519 | 0.333 | 0.459 | 0.464 | 0.423
HCC-44 | 1.04 | 1.1 | 1.01 | 1 | 1.01 | 1.1 | 1.15 | 1.08 | 1.13 | 1.17 | 0.825 | 0.83 | 0.881 | 0.835 | 0.818 | 0.226 | 0.21 | 0.163 | 0.185 | 0.196
HCC-78 | 0.536 | 0.498 | 0.595 | 0.682 | 0.513 | 0.428 | 0.457 | 0.367 | 0.494 | 0.418 | 0.357 | 0.324 | 0.369 | 0.372 | 0.335 | 0.705 | 0.586 | 0.642 | 0.723 | 0.696
